Measured values as given in paper PMC9954146, “Anti-Leukaemic Activity of Rilpivirine Is Mediated by Aurora A Kinase Inhibition” (Cancers, 2023).

Legend:
Experiment in all cases: Kinase panel
Assay type in all cases: biochemical
Conditions in all cases: read-out: % Residual Activity
[1] = target: T1, BIKe(h) (Homo sapiens, UniProt Q9NSY1)
T1 construct: purchased Eurofins (KinaseProfiler)
Outline: (§1)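 For each panel kinase, rilpivirine inhibition is measured by radioactive phosphate transfer with ATP at that enzyme's Km, […].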

[2] = target: T2, CDK2/cyclinE(h) (Homo sapiens, UniProt P24941)
T2 construct: purchased Eurofins (KinaseProfiler)
Outline: as §1

[3] = target: T3, CDKL2(h) (Homo sapiens, UniProt Q92772)
T3 construct: purchased Eurofins (KinaseProfiler)
Outline: as §1

[4] = target: T4, CHK2(I157T)(h) (Homo sapiens, UniProt O96017, I157T)
T4 construct: purchased Eurofins (KinaseProfiler)
Outline: as §1

[5] = target: T5, CK1ε(h) (Homo sapiens, UniProt P49674)
T5 construct: purchased Eurofins (KinaseProfiler)
Outline: as §1

[6] = target: T6, ChaK1(h) (Homo sapiens, UniProt Q96QT4)
T6 construct: purchased Eurofins (KinaseProfiler)
Outline: as §1

[7] = target: T7, DDR1(h) (Homo sapiens, UniProt Q08345)
T7 construct: purchased Eurofins (KinaseProfiler)
Outline: as §1

[8] = target: T8, EGFR(T790M)(h) (Homo sapiens, UniProt P00533, T790M)
T8 construct: purchased Eurofins (KinaseProfiler)
Outline: as §1

[9] = target: T9, EphA1(h) (Homo sapiens, UniProt P21709)
T9 construct: purchased Eurofins (KinaseProfiler)
Outline: as §1

[10] = target: T10, EphB3(h) (Homo sapiens, UniProt P54753)
T10 construct: purchased Eurofins (KinaseProfiler)
Outline: as §1

[11] = target: T11, FGFR4(h) (Homo sapiens, UniProt P22455)
T11 construct: purchased Eurofins (KinaseProfiler)
Outline: as §1

[12] = target: T12, Fer(h) (Homo sapiens, UniProt P16591)
T12 construct: purchased Eurofins (KinaseProfiler)
Outline: as §1

[13] = target: T13, Flt4(h) (Homo sapiens, UniProt P35916)
T13 construct: purchased Eurofins (KinaseProfiler)
Outline: as §1

[14] = target: T14, Fyn(h) (Homo sapiens, UniProt P06241)
T14 construct: purchased Eurofins (KinaseProfiler)
Outline: as §1

[15] = target: T15, GSK3β(h) (Homo sapiens, UniProt P49841)
T15 construct: purchased Eurofins (KinaseProfiler)
Outline: as §1

[16] = target: T16, HIPK2(h) (Homo sapiens, UniProt Q9H2X6)
T16 construct: purchased Eurofins (KinaseProfiler)
Outline: as §1

[17] = target: T17, HIPK3(h) (Homo sapiens, UniProt Q9H422)
T17 construct: purchased Eurofins (KinaseProfiler)
Outline: as §1

[18] = target: T18, IKKα(h) (Homo sapiens, UniProt O15111)
T18 construct: purchased Eurofins (KinaseProfiler)
Outline: as §1

[19] = target: T19, IKKβ(h) (Homo sapiens, UniProt O14920)
T19 construct: purchased Eurofins (KinaseProfiler)
Outline: as §1

[20] = target: T20, IR(h) (Homo sapiens, UniProt P06213)
T20 construct: purchased Eurofins (KinaseProfiler)
Outline: as §1

[21] = target: T21, IRR(h) (Homo sapiens, UniProt P14616)
T21 construct: purchased Eurofins (KinaseProfiler)
Outline: as §1

[22] = target: T22, JNK1α1(h) (Homo sapiens, UniProt P45983)
T22 construct: purchased Eurofins (KinaseProfiler)
Outline: as §1

[23] = target: T23, LRRK2(h) (Homo sapiens, UniProt Q5S007)
T23 construct: purchased Eurofins (KinaseProfiler)
Outline: as §1

[24] = target: T24, PDGFRβ(h) (Homo sapiens, UniProt P09619)
T24 construct: purchased Eurofins (KinaseProfiler)
Outline: as §1

[25] = target: PI3 Kinase (p110aH1047R)/p85a)(h) (Homo sapiens, UniProt P42336, H1047R)
Outline: as §1

[26] = target: T25, PI3 Kinase (p120g)(h) (Homo sapiens, UniProt P48736)
T25 construct: purchased Eurofins (KinaseProfiler)
Outline: as §1

[27] = target: T26, PKCζ(h) (Homo sapiens, UniProt Q05513)
T26 construct: purchased Eurofins (KinaseProfiler)
Outline: as §1

[28] = target: T27, Plk1(h) (Homo sapiens, UniProt P53350)
T27 construct: purchased Eurofins (KinaseProfiler)
Outline: as §1

[29] = target: T28, SNRK(h) (Homo sapiens, UniProt Q9NRH2)
T28 construct: purchased Eurofins (KinaseProfiler)
Outline: as §1

[30] = target: T29, TBK1(h) (Homo sapiens, UniProt Q9UHD2)
T29 construct: purchased Eurofins (KinaseProfiler)
Outline: as §1

[31] = target: T30, TSSK1(h) (Homo sapiens, UniProt Q9BXA7)
T30 construct: purchased Eurofins (KinaseProfiler)
Outline: as §1

[32] = target: T31, TSSK4(h) (Homo sapiens, UniProt Q6SA08)
T31 construct: purchased Eurofins (KinaseProfiler)
Outline: as §1

[33] = target: T32, TYK2(h) (Homo sapiens, UniProt P29597)
T32 construct: purchased Eurofins (KinaseProfiler)
Outline: as §1

[34] = target: T33, TrkC(h) (Homo sapiens, UniProt Q16288)
T33 construct: purchased Eurofins (KinaseProfiler)
Outline: as §1

[35] = target: T34, ULK3(h) (Homo sapiens, UniProt Q6PHR2)
T34 construct: purchased Eurofins (KinaseProfiler)
Outline: as §1

[36] = target: T35, WNK1(h) (Homo sapiens, UniProt Q9H4A3)
T35 construct: purchased Eurofins (KinaseProfiler)
Outline: as §1

[37] = target: T36, WNK3(h) (Homo sapiens, UniProt Q9BYP7)
T36 construct: purchased Eurofins (KinaseProfiler)
Outline: as §1

[38] = target: T37, c-RAF(h) (Homo sapiens, UniProt P04049)
T37 construct: purchased Eurofins (KinaseProfiler)
Outline: as §1

[39] = target: T38, mTOR/FKBP12(h) (Homo sapiens, UniProt P42345)
T38 construct: purchased Eurofins (KinaseProfiler)
Outline: as §1

T4 sequence (O96017 whole entry I157T): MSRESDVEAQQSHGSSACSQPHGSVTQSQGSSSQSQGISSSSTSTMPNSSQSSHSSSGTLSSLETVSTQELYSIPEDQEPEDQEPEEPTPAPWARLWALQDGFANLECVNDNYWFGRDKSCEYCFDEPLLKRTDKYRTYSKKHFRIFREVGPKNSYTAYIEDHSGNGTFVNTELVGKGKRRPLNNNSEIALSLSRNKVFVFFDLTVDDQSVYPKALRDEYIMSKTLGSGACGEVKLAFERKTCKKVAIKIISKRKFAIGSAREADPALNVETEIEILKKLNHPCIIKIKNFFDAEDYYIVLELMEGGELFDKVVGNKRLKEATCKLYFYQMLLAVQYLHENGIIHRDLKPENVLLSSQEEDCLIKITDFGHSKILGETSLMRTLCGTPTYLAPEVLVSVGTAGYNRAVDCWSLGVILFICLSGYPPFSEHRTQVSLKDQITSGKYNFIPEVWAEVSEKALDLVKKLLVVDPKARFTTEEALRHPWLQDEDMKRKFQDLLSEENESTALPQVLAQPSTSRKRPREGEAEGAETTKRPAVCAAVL
T5 sequence (P49674 whole entry): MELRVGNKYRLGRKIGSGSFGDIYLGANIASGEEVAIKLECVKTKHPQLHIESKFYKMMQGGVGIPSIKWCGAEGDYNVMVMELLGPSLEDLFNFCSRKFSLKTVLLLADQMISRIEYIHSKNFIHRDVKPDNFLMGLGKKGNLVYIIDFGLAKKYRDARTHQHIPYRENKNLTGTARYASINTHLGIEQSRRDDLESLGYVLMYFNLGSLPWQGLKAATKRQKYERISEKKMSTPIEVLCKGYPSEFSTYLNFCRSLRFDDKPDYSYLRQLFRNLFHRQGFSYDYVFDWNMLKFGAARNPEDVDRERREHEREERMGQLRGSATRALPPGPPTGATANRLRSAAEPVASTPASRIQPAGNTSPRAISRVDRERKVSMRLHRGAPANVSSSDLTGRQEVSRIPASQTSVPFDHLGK
T33 sequence (Q16288 32-839): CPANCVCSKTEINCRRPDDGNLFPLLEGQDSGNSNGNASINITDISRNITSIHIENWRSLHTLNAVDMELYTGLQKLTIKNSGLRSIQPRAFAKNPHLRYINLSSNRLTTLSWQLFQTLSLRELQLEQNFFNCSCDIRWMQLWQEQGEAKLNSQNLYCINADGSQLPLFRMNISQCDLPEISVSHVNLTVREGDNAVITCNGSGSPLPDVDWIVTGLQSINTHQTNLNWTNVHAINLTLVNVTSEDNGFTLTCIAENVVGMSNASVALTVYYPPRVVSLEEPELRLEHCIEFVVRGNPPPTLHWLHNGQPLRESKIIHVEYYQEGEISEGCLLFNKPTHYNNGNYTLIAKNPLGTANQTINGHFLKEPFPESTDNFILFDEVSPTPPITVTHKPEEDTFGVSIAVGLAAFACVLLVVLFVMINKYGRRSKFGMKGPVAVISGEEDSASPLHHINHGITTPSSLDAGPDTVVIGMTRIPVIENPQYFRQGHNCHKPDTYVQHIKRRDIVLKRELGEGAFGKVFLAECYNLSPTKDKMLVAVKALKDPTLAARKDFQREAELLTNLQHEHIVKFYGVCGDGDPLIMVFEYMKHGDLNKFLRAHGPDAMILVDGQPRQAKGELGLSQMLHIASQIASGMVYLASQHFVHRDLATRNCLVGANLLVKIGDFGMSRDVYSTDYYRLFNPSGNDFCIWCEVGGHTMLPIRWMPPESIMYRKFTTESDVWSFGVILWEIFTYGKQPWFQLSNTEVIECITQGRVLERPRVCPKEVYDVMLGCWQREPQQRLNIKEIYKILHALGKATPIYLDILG
T12 sequence (P16591 whole entry): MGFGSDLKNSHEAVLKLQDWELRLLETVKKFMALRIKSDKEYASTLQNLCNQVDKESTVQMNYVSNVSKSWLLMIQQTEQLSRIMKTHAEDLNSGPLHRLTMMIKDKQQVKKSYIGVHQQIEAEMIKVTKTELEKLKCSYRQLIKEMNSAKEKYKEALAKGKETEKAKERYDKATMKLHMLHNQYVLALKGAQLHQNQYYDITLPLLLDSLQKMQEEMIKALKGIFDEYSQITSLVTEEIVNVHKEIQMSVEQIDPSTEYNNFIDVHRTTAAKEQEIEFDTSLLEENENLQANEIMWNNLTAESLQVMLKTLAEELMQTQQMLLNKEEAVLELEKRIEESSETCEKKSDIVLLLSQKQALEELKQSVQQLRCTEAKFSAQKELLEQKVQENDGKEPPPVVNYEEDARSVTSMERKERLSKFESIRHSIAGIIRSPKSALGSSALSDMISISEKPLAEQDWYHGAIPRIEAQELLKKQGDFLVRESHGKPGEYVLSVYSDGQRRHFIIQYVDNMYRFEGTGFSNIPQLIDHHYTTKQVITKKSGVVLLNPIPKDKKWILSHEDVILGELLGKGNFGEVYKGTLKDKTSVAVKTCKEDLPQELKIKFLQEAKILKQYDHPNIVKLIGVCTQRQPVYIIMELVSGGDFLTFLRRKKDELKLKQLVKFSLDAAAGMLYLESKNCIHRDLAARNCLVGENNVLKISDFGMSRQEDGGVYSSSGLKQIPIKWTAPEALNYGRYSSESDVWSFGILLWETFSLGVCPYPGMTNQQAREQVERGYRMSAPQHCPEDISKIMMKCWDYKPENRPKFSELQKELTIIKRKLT
T3 sequence (Q92772 whole entry): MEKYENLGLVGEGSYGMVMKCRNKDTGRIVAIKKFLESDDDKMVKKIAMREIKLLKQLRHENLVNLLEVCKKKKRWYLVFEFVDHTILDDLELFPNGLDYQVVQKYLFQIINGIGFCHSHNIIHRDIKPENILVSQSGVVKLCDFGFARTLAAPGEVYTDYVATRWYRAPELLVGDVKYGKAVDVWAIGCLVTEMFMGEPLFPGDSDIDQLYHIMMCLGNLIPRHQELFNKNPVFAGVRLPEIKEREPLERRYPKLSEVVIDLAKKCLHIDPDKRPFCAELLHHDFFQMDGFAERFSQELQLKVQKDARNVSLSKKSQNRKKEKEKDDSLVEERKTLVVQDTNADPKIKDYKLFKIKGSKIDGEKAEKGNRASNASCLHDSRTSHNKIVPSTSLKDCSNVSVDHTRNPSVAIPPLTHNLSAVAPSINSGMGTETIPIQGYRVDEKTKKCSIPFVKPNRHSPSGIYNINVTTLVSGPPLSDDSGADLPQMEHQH
T9 sequence (P21709 26-976): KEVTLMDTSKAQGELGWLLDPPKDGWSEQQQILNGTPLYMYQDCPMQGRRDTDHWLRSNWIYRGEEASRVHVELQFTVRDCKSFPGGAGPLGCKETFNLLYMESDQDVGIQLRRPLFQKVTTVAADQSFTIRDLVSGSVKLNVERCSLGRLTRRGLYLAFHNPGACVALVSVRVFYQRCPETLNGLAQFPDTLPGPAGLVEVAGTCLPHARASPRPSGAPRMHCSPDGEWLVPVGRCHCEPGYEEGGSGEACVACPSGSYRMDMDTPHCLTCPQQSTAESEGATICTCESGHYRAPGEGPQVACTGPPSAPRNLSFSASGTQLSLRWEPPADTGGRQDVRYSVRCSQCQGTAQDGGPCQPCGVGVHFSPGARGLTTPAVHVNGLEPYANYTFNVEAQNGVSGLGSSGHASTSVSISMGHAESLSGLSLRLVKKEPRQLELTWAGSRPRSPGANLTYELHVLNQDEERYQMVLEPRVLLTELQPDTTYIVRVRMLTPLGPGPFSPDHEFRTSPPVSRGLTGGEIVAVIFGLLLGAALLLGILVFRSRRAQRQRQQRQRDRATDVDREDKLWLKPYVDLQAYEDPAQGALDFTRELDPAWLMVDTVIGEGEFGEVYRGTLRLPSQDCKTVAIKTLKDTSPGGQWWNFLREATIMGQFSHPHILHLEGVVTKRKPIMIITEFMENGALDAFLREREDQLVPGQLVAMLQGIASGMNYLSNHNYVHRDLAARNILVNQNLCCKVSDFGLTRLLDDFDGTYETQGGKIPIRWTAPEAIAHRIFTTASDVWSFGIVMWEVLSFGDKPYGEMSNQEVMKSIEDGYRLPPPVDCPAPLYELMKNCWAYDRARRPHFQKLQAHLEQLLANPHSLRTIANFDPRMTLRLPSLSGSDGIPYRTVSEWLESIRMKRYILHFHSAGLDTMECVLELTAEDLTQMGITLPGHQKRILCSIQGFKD
T37 sequence (P04049 whole entry): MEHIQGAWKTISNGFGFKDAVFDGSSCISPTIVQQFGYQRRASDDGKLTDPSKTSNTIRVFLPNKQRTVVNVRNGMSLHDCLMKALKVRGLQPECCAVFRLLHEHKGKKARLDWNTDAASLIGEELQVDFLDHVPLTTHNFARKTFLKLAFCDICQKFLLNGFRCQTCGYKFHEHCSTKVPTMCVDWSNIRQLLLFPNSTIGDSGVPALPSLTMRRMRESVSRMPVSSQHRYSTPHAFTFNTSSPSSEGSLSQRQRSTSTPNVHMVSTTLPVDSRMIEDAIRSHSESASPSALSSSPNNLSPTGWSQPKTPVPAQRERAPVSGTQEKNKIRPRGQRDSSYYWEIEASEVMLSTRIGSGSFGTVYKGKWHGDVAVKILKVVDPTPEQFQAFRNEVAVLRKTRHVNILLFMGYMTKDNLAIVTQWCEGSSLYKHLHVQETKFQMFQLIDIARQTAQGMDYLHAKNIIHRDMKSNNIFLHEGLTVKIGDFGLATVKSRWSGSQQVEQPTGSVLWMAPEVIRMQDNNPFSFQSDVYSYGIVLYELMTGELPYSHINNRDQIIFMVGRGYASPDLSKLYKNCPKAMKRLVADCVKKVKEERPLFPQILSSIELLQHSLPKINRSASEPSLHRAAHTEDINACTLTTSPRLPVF
T30 sequence (Q9BXA7 whole entry): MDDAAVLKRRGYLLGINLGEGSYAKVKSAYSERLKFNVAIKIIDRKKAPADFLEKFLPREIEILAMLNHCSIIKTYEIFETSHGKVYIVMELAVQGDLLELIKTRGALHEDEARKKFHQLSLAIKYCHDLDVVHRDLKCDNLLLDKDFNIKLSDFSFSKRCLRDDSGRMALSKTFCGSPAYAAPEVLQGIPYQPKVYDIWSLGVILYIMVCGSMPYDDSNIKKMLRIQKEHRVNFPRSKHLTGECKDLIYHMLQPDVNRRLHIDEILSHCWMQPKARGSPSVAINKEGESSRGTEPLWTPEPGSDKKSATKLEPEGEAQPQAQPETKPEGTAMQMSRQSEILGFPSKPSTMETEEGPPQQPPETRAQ

## Cc1cc(/C=C/C#N)cc(C)c1Nc1ccnc(Nc2ccc(C#N)cc2)n1 [rilpivirine, (E)-4-((4-((4-(2-cyanoethenyl)-2,6-dimethylphenyl)amino)pyrimidin-2-yl)amino)benzonitrile]
[1]
  remaining activity at 1 µM: 56%
[2]
  remaining activity at 1 µM: 92%
[3]
  remaining activity at 1 µM: 100%
[4]
  remaining activity at 1 µM: 97%
[5]
  remaining activity at 1 µM: 116%
[6]
  remaining activity at 1 µM: 94%
[7]
  remaining activity at 1 µM: 46%
[8]
  remaining activity at 1 µM: 79%
[9]
  remaining activity at 1 µM: 56%
[10]
  remaining activity at 1 µM: 88%
[11]
  remaining activity at 1 µM: 121%
[12]
  remaining activity at 1 µM: 91%
[13]
  remaining activity at 1 µM: 101%
[14]
  remaining activity at 1 µM: 49%
[15]
  remaining activity at 1 µM: 84%
[16]
  remaining activity at 1 µM: 85%
[17]
  remaining activity at 1 µM: 92%
[18]
  remaining activity at 1 µM: 85%
[19]
  remaining activity at 1 µM: 95%
[20]
  remaining activity at 1 µM: 111%
[21]
  remaining activity at 1 µM: 95%
[22]
  remaining activity at 1 µM: 90%
[23]
  remaining activity at 1 µM: 93%
[24]
  remaining activity at 1 µM: 93%
[25]
  remaining activity at 1 µM: 93%
[26]
  remaining activity at 1 µM: 87%
[27]
  remaining activity at 1 µM: 80%
[28]
  remaining activity at 1 µM: 107%
[29]
  remaining activity at 1 µM: 104%
[30]
  remaining activity at 1 µM: 72%
[31]
  remaining activity at 1 µM: 86%
[32]
  remaining activity at 1 µM: 127%
[33]
  remaining activity at 1 µM: 52%
[34]
  remaining activity at 1 µM: 91%
[35]
  remaining activity at 1 µM: 94%
[36]
  remaining activity at 1 µM: 95%
[37]
  remaining activity at 1 µM: 83%
[38]
  remaining activity at 1 µM: 91%
[39]
  remaining activity at 1 µM: 100%
